Experimental data: PMC10682394, “A papain-like cysteine protease-released small signal peptide confers wheat resistance to wheat yellow mosaic virus” (Nature Communications, 2023)
Peptide text beside a SMILES is read from it. * marks the point of attachment. AMC = Cc1cc(=O)oc2cc(N*)ccc12; Cbz = O=C(OCc1ccccc1)*

Target: T1, TaRD21A (TaRD21A^S; TaRD21A^R in A96S rows) (Triticum aestivum, UniProt A0A3B6DKH2)
T1 construct: gene LOC123054921; GST fusion from E. coli BL21 (purified), or RFP fusion expressed in N. benthamiana leaves (apoplastic fluid); active bands 25-40 kDa
T1 sequence (A0A3B6DKH2 24-463, stated change not applied): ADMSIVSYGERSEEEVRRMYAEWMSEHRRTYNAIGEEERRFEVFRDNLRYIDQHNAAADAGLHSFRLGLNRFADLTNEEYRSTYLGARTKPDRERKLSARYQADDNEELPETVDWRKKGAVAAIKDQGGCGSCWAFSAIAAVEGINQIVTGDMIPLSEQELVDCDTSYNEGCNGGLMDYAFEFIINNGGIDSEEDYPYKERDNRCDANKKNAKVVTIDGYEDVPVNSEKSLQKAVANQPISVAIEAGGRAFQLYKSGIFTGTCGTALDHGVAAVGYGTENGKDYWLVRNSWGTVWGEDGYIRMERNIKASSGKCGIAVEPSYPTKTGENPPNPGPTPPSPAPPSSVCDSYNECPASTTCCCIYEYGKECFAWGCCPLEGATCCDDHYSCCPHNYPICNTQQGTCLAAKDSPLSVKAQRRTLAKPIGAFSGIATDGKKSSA
Experiment: fluorescent substrate assay, purified TaRD21A^S-GST
Format: biochemical
Conditions: 10 uM substrate

| SMILES | fluorescent substrate assay, purified TaRD21A^S-GST (RR motif) | fluorescent substrate assay, purified TaRD21A^S-GST (FR motif) |
| --- | --- | --- |
| Cc1cc(=O)oc2cc(NC(=O)[C@H](CCCNC(=N)N)NC(=O)[C@H](CCCNC(=N)N)NC(=O)OCc3ccccc3)ccc12 [Z-Arg-Arg-AMC] (Cbz-Arg-Arg-{AMC}) | examined using fluorescent substrates containing RR/FR motifs | – |
| Cc1cc(=O)oc2cc(NC(=O)[C@H](CCCNC(=N)N)NC(=O)[C@H](Cc3ccccc3)NC(=O)OCc3ccccc3)ccc12 [Z-Phe-Arg-7-amido-4-methylcoumarin] (Cbz-Phe-Arg-{AMC}) | – | examined using fluorescent substrates containing RR/FR motifs |
